From patent US20240336594A1, “SIX-MEMBERED ARYL OR HETEROARYL AMIDES, AND COMPOSITION AND USE THEREOF” (BETTA PHARMACEUTICALS CO., LTD, priority 2021, published 2024)

Key:
MALT1 = molecular target: T1, MALT1 (Homo sapiens, UniProt Q9UDY8); assay: MALT1 protease inhibition assay (AMC-labeled peptide, fluorescence 360/460); format: biochemical; conditions: substrate Ac-LRSR-AMC, 15 min preincubation, 90 min at 25° C.
T1 sequence (Q9UDY8 1-824): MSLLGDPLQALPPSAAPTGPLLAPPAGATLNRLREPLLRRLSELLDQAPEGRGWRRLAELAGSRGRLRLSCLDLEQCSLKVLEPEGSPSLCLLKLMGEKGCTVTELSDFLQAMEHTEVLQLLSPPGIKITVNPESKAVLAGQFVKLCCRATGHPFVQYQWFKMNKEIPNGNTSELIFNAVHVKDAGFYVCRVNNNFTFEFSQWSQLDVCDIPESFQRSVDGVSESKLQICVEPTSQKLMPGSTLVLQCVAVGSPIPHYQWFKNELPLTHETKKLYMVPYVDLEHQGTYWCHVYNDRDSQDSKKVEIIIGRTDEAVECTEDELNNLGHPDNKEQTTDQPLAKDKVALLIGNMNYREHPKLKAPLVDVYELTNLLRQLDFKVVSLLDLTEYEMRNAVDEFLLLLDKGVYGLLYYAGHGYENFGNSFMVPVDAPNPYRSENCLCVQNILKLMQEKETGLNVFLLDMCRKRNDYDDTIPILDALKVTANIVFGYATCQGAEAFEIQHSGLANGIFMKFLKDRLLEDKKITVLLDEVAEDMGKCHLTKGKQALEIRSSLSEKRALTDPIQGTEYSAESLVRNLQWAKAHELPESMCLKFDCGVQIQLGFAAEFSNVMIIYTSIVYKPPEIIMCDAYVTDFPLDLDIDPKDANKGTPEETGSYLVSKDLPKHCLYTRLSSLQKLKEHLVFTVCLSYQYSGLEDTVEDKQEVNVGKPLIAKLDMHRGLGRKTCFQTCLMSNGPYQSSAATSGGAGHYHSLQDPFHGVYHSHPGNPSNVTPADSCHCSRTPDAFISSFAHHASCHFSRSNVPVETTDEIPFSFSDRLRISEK
Procedure, shortened: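 Fluorogenic AMC-peptide cleavage read after 90 min at 25 °C, following a 15 min enzyme–compound preincubation at 25 °C in citrate protease buffer plus DTT. Compounds run as ten 3-fold dilutions in duplicate; percent inhibition relative to enzyme-only and enzyme-free controls, fitted to IC50.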

[1] = tested on: IL-2 secretion of Jurkat cells (PMA/Ionomycin inducing); assay: ELISA method to detect IL-2 secretion induced by PMA/Ionomycin; format: cell-based; conditions: Homo sapiens, 20 h
Protocol: 12.5*10^3 Jurkat cells were seeded on a 96-well plate and incubated with various concentrations of compound solution for 30 min. Then, 500×PMA/Ionomycin stimulating factor was diluted with culture medium and added to the cell plate. […] The final concentrations of the compounds were 10000, 3333.3, 1111.1, 370.4, 123.5, 41.2, 13.7, 4.6, 1.5, 0 nM (The final concentration of DMSO is 0.5%). After incubation for 20 h, the supernatant was collected via centrifugation. The final IL-2 concentration was detected by ELISA method (IL-2 Duoset, R&D Systems, DY202). The signal value of each sample at a wavelength of 450 nm was collected by EnVision multifunctional microplate reader and converted to the IL-2 concentration via the ELISACalc.exe software. The IL-2 secretion inhibitory activity IC50 was fitted by GraphPad Prism software. The cell viability was tested simultaneously using the Cell-Titer Glo kit.
The compounds of the present invention show strong inhibitory effect on IL-2 secretion of Jurkat cells (PMA/Ionomycin inducing).

SMILES | IC50 (MALT1) [µM] | IC50 [1] [µM]
O=C(Nc1cnc(-n2nccn2)c(Cl)c1)c1ccc(-c2ccc(F)cc2Br)cc1Cl [Example A102] |  | 0.154
Nc1ccccc1-c1cc(Cl)c(C(=O)Nc2cnc(-n3nccn3)c(C(F)(F)F)c2)cc1F [Example A69] |  | 0.195
Nc1ccccc1-c1cc(Cl)c(C(=O)Nc2cnc(-n3nccn3)c(C(F)(F)F)c2)cc1Cl [Example A111, N-(6-(2H-1,2,3-triazol-2-yl)-5-(trifluoromethyl)pyridin-3-yl)-2′-amino-2,5-dichloro-[1,1′-biphenyl]-4-carboxamide] |  | 0.283
Nc1cc(F)ccc1-c1cc(F)c(C(=O)Nc2cnc(-n3nccn3)c(Cl)c2)cc1Cl [Example A120, 2′-amino-2-chloro-N-(5-chloro-6-(2H-1,2,3-triazol-2-yl)pyridin-3-yl)-4′,5-difluoro-[1,1′-biphenyl]-4-carboxamide] | ≤ 0.01 | 0.057
O=C(Nc1cnc(-n2nccn2)c(C(F)(F)F)c1)c1cc(F)c(-c2ccccc2Cl)cc1Cl [Example A106, N-(6-(2H-1,2,3-triazol-2-yl)-5-(trifluoromethyl)pyridin-3-yl)-2′,5-dichloro-2-fluoro-[1,1′-biphenyl]-4-carboxamide] |  | 0.265
COc1ccccc1-c1ccc(C(=O)Nc2cnc(-n3nccn3)c(C(F)(F)F)c2)c(C)c1 [Example A64] |  | 0.463
C#Cc1cc(F)cc(N)c1-c1cc(Cl)c(C(=O)Nc2cnc(-n3nccn3)c(Cl)c2)cc1F [Example A412] | ≤ 0.01 | 0.032
O=C(Nc1cnc(-n2nccn2)c(C(F)(F)F)c1)c1cc(F)c(-c2ccc(F)cc2Cl)cc1Cl [Example A105] |  | 0.134
Cc1cc(-c2ccc(F)cc2Cl)c(F)cc1C(=O)Nc1cnc(-n2nccn2)c(Cl)c1 [Example A115, 2′-chloro-N-(5-chloro-6-(2H-1,2,3-triazol-2-yl)pyridin-3-yl)-2,4′-difluoro-5-methyl-[1,1′-biphenyl]-4-carboxamide] | ≤ 0.01 | 0.04
C#Cc1cnccc1-c1cc(Cl)c(C(=O)Nc2cnc(C(=O)NCC(F)(F)F)c(Cl)c2)cc1F [Example A429, 3-chloro-5-(2-chloro-4-(3-ethynylpyridin-4-yl)-5-fluorobenzamido)-N-(2,2,2-trifluoroethyl)picolinamide] |  | 0.259
O=C(Nc1cnc(-n2nccn2)c(C(F)(F)F)c1)c1cnc(-c2ccc(F)cc2Cl)cc1Cl [Example A18, N-(6-(2H-1,2,3-triazol-2-yl)-5-(trifluoromethyl)pyridin-3-yl)-4-chloro-6-(2-chloro-4-fluorophenyl)nicotinamide] |  | 0.598
O=C(Nc1cnc(-n2nccn2)c(Cl)c1)c1ccc(-c2ccncc2Cl)cc1Cl [Example A100] |  | 0.369
COc1cc(F)ccc1-c1cc(Cl)c(C(=O)Nc2cnc(-n3nccn3)c(C(F)(F)F)c2)cc1F [Example A112, N-(6-(2H-1,2,3-triazol-2-yl)-5-(trifluoromethyl)pyridin-3-yl)-5-chloro-2,4′-difluoro-2′-methoxy-[1,1′-biphenyl]-4-carboxamide] |  | 0.234
C#Cc1cc(F)ccc1-c1cc(C)c(C(=O)Nc2cnc(-n3nccn3)c(Cl)c2)cc1-c1ccccc1 [Example A422, N-(5-chloro-6-(2H-1,2,3-triazol-2-yl)pyridin-3-yl)-2-ethynyl-4-fluoro-5′-methyl-[1,1′:2′,1″-terphenyl]-4′-carboxamide] | > 0.5 | 
C#Cc1cnc(Cl)c(N)c1-c1cc(Cl)c(C(=O)Nc2cnc(-n3nccn3)c(C(F)(F)F)c2)cc1F [Example A553] | ≤ 0.01 | 
C#Cc1cncc(N)c1-c1cc(Cl)c(C(=O)Nc2cnc(C(=O)NCC(F)F)c(Cl)c2)cc1F [Example A471, 5-(4-(3-amino-5-ethynylpyridin-4-yl)-2-chloro-5-fluorobenzamido)-3-chloro-N-(2,2-difluoroethyl)picolinamide] | ≤ 0.01 | 
Cc1cc(-c2ccc(F)cc2Cl)c(-c2ccccc2)cc1C(=O)Nc1cnc(-n2nccn2)c(Cl)c1 [Example A419, 2-chloro-N-(5-chloro-6-(2H-1,2,3-triazol-2-yl)pyridin-3-yl)-4-fluoro-5′-methyl-[1,1′:2′,1″-terphenyl]-4′-carboxamide] | > 0.5 | 
Cc1nc(-c2ccc(F)cc2Cl)ncc1C(=O)Nc1cnc(-n2nccn2)c(C(F)(F)F)c1 [Example A12] |  | 0.285
COc1ccccc1-c1cc(C)c(C(=O)Nc2cnc(-n3nccn3)c(Cl)c2)cc1F [Example A117, N-(5-chloro-6-(2H-1,2,3-triazol-2-yl)pyridin-3-yl)-2-fluoro-2′-methoxy-5-methyl-[1,1′-biphenyl]-4-carboxamide] |  | 0.184

Next, values leading:

IC50 (MALT1) [µM] | IC50 [1] [µM] | SMILES
≤ 0.01 | 0.077 | C#Cc1cnccc1-c1cc(Cl)c(C(=O)Nc2cnc(C(=O)NC)c(Cl)c2)cc1F [Example A426, 3-chloro-5-(2-chloro-4-(3-ethynylpyridin-4-yl)-5-fluorobenzamido)-N-methylpicolinamide]
 | 0.632 | O=C(Nc1cnc(-n2nccn2)c(C(F)(F)F)c1)c1ccc(-c2ccc(F)cc2Cl)cc1C1CC1 [Example A19, N-(6-(2H-1,2,3-triazol-2-yl)-5-(trifluoromethyl)pyridin-3-yl)-2′-chloro-3-cyclopropyl-4′-fluoro-[1,1′-biphenyl]-4-carboxamide]
 | 0.208 | CC(=O)c1cncc(N)c1-c1cc(Cl)c(C(=O)Nc2cnc(-n3nccn3)c(Cl)c2)cc1F [Example A529, 4-(3-acetyl-5-aminopyridin-4-yl)-2-chloro-N-(5-chloro-6-(2H-1,2,3-triazol-2-yl)pyridin-3-yl)-5-fluorobenzamide]
≤ 0.01 | 0.043 | Nc1cc(F)ccc1-c1cc(Cl)c(C(=O)Nc2cnc(-n3nccn3)c(Cl)c2)cc1F [Example A121, 2′-amino-5-chloro-N-(5-chloro-6-(2H-1,2,3-triazol-2-yl)pyridin-3-yl)-2,4′-difluoro-[1,1′-biphenyl]-4-carboxamide]
 | 0.325 | COc1ccccc1-c1cc(Cl)c(C(=O)Nc2cnc(-n3nccn3)c(C(F)(F)F)c2)cc1F [Example A67]
≤ 0.01 | 0.136 | Cc1cc(-c2ccncc2Cl)c(F)cc1C(=O)Nc1cnc(-n2nccn2)c(Cl)c1 [Example A126]
≤ 0.01 | 0.252 | Nc1cnccc1-c1cc(F)c(C(=O)Nc2cnc(-n3nccn3)c(Cl)c2)cc1Cl [Example A124]
 | 0.082 | COc1cc(F)ccc1-c1cc(C)c(C(=O)Nc2cnc(-n3nccn3)c(Cl)c2)cc1F [Example A118, N-(5-chloro-6-(2H-1,2,3-triazol-2-yl)pyridin-3-yl)-2,4′-difluoro-2′-methoxy-5-methyl-[1,1′-biphenyl]-4-carboxamide]
 | 0.471 | O=C(Nc1cnc(-n2nccn2)c(Cl)c1)c1ccc(-c2ccccc2Cl)cc1Cl [Example A42]
 | 0.194 | Cc1cc(-c2ccc(F)cc2Cl)ccc1C(=O)Nc1cnc(-n2nccn2)c(C(F)(F)F)c1 [Example A16, N-(6-(2H-1,2,3-triazol-2-yl)-5-(trifluoromethyl)pyridin-3-yl)-2′-chloro-4′-fluoro-3-methyl-[1,1′-biphenyl]-4-carboxamide]
 | 0.191 | O=C(Nc1cnc(-n2nccn2)c(C(F)(F)F)c1)c1ccc(-c2ccc(F)cc2Cl)cc1Cl [Example A17, N-(6-(2H-1,2,3-triazol-2-yl)-5-(trifluoromethyl)pyridin-3-yl)-2′,3-dichloro-4′-fluoro-[1,1′-biphenyl]-4-carboxamide]
 | 0.294 | COc1cc(F)ccc1-c1ccc(C(=O)Nc2cnc(-n3nccn3)c(Cl)c2)c(Cl)c1 [Example A104]
≤ 0.01 |  | C#Cc1cncc(N)c1-c1cc(Cl)c(C(=O)Nc2cnc(C(=O)NCC)c(Cl)c2)cc1F [Example A479, 5-(4-(3-amino-5-ethynylpyridin-4-yl)-2-chloro-5-fluorobenzamido)-3-chloro-N-ethylpicolinamide]
